We go through 7 compounds from US11008290B2, “Halogenated quinoline derivatives as antimicrobial agents” (University of Florida Research Foundation, Incorporated, priority 2015, dated 2021).

What is called MIC is the lowest concentration found to suppress growth.

In brackets after ≈: the same amount, converted by molar mass. Read-outs that look alike come from different tables or passages of the source.

Data set [1] deals with MRSA-2 planktonic cells and biofilms. In words: Calgary Biofilm Device (CBD) MBC/MBEC determination. Particulars: Staphylococcus aureus, MRSA, Table 3; planktonic killing, CBD; first value of MBC/MBEC cell; read-out: MRSA-2 MBC. It is filed as cell-based, Staphylococcus aureus. Here is the method:
(§1) Biofilm eradication experiments were performed using the Calgary Biofilm Device to determine MBC/MBEC values for various compounds of interest (Innovotech, product code: 19111). The Calgary device (96-well plate with lid containing 96 total pegs to establish biofilms; 1 peg/well) was inoculated with 125 μL of a mid-log phase culture diluted 1,000-fold in tryptic soy broth with 0.5% glucose (TSBG) to establish bacterial biofilms after incubation at 37° C. for 24 hours. The lid of the Calgary device was then removed, washed and transferred to another 96-well plate containing 2-fold serial dilutions of the test compounds (the “challenge plate”). The total volume of media with compound in each well in the challenge plate was 150 μL. The Calgary device was then incubated at 37° C. for 24 hours. The lid was then removed from the challenge plate and MBC/MBEC values were determined using different final assays. […] The MBC values were determined as the concentration giving a lack of visible bacterial growth (e.g., turbidity). For determination of MBEC values, the Calgary device lid (with attached pegs/treated biofilms) was transferred to a new 96-well plate containing 150 μL of fresh TSBG media in each well and incubated for 24 hours at 37° C. to allow viable biofilms to grow and disperse resulting in turbidity after the incubation period. […] In select experiments, treated pegs from the Calgary device were removed from lead biofilm eradicators after final incubation, sonicated for 30 minutes in PBS and plated out to determine biofilm cell killing (e.g., colony forming unit per milliliter, CFU/mL).

The next data set has as its system human red blood cells. In words: Hemolysis assay. It is filed as cell-based. Conditions: human, 1 h, pH 7.2. As to the method:
Freshly drawn human red blood cells (hRBC with ethylenediaminetetraacetic acid (EDTA) as an anticoagulant) were washed with Tris-buffered saline (0.01M Tris-base, 0.155M sodium chloride (NaCl), pH 7.2) and centrifuged for 5 minutes at 3500 rpm. The washing was repeated three times with the buffer. In 96-well plate, the test compounds were added to the buffer. […] The plate was then incubated for 1 hour at 37° C. After incubation, the plate is centrifuged for 5 minutes at 3500 rpm. Then 80 μL of the supernatant were transferred to another 96-well plate and the Optical Density (OD) was read at 405 nm. […] The percent of hemolysis was calculated as (OD405 of the compound-OD405 DMSO)/(OD405 Triton X-OD405 buffer).

Data set [2] concerns VRE (ATCC 700221) planktonic cells and biofilms. In words: Calgary Biofilm Device (CBD) MBC/MBEC determination. It is filed as cell-based, Enterococcus faecium. Particulars: Enterococcus; Table 3; planktonic killing, CBD; first value of cell; footnote c = lowest concentration tested; read-out: VRE MBC. As to the method:
as §1

For data set [3], the system named is MRSE (ATCC 35984) planktonic cells and biofilms. The data set is described as above. It is filed as cell-based, Staphylococcus epidermidis. Particulars: Staphylococcus epidermidis; Table 3; planktonic killing, CBD; first value of cell; read-out: MRSE MBC. As to the method: as §1
For data set [4], the system named is methicillin-resistant Staphylococcus epidermidis (MRSE; ATCC 35984). In words: Minimum inhibitory concentration (MIC) susceptibility assay, broth microdilution. It is filed as cell-based. Particulars: Staphylococcus epidermidis; Table 3; read-out: MRSE MIC. As to the method:
(§2) The minimum inhibitory concentration (MIC) for each compound was determined by the broth microdilution method as recommended by the Clinical and Laboratory Standards Institute (CLSI). In a 96-well plate, eleven two-fold serial dilutions of each compound were made in a final volume of 100 μL Luria Broth. Each well was inoculated with ˜10^5 bacterial cells at the initial time of incubation, prepared from a fresh log phase culture (OD600 of 0.5 to 1.0 depending on bacterial strain). […] The concentration range tested for each compound during this study was 0.10 to 100 μM. DMSO served as the vehicle and negative control in each microdilution MIC assay. DMSO was serially diluted with a top concentration of 1% v/v. Bacterial strains used: methicillin-resistant Staphylococcus aureus-2 (MRSA-2; clinical isolate from Shands Hospital in Gainesville, Fla.), methicillin-resistant Staphylococcus epidermidis (MRSE; ATCC 35984), vancomycin-resistant Enterococcus faecium (VRE, ATCC 700221).

The test system of data set [5] is methicillin-resistant Staphylococcus aureus-2 (MRSA-2; clinical isolate). The data set is described as above. It is filed as cell-based. Conditions: Staphylococcus, MRSA. Here is the method: as §2
Data set [6] deals with vancomycin-resistant Enterococcus faecium (VRE, ATCC 700221). The data set is described as above. It is filed as cell-based. Particulars: Table 3; read-out: VRE MIC. Here is the method: as §2
[7] abbreviates: Table 3, at least three independent experiments, read-out: MRSA-2 MIC.

As for `NC(=O)c1cnccn1` [Pyrazinamide, reference compound], the MBC in data set [1] was above 2000 µM. In the data set with human red blood cells, the “% Haemolysis at 200 μM” value is on record as at most 1%.
As to `CCCCCNCc1ccc2c(Br)cc(Br)c(O)c2n1` [RA-HQ-2], the MBC stood at 15.6 µM (≈ 6.27 µg/mL) in data set [2], 23.5 µM (≈ 9.45 µg/mL) in data set [3] and 31.3 µM (≈ 12.6 µg/mL) in data set [1]. In addition, the “% Haemolysis at 200 μM” value in the data set with human red blood cells turned out to be 87.9%. Moreover, the MIC is 1.56 µM (≈ 0.627 µg/mL) in data set [4], 2.35 µM (≈ 0.945 µg/mL) in data set [5] (setting [7]), 3.13 µM (≈ 1.26 µg/mL) in data set [5] (read-out: MIC) and 3.13 µM (≈ 1.26 µg/mL) in data set [6].
Consider `Oc1c(Br)cc(Br)c2ccc(CNc3ccc(Cl)cc3)nc12` [RA-HQ-13], for which the MBC amounted to 1.5 µM (≈ 0.664 µg/mL) in data set [2], 31.3 µM (≈ 13.9 µg/mL) in data set [3] and 31.3 µM (≈ 13.9 µg/mL) in data set [1]. The “% Haemolysis at 200 μM” value in the data set on human red blood cells is given as 17.6%. Further, the MIC turned out to be 0.3 µM (≈ 0.133 µg/mL) in data set [4], 0.78 µM (≈ 0.345 µg/mL) in data set [5] (setting [7]) and 0.78 µM (≈ 0.345 µg/mL) in data set [6].
For `Oc1c(Br)cc(Br)c2ccc(CNc3ccc(I)cc3)nc12` [RA-HQ-14], the MBC in data set [2] came out at 46.9 µM (≈ 25 µg/mL); in data set [3], 46.9 µM (≈ 25 µg/mL); in data set [1] it was 250 µM (≈ 133 µg/mL). The “% Haemolysis at 200 μM” value in the data set on human red blood cells was determined as 11.0%. Besides, the MIC in data set [4] worked out at 0.78 µM (≈ 0.417 µg/mL); in data set [5] (setting [7]), 4.69 µM (≈ 2.5 µg/mL); in data set [6], 4.69 µM (≈ 2.5 µg/mL).
As to `Oc1c(Br)cc(Br)c2ccc(CNc3cccc(Br)c3)nc12` [RA-HQ-15], the MBC in data set [2] was 7.8 µM (≈ 3.8 µg/mL); in data set [3], 31.3 µM (≈ 15.2 µg/mL); in data set [1], 188 µM (≈ 91.6 µg/mL). In addition, in the data set with human red blood cells, the “% Haemolysis at 200 μM” value was determined as 37.3%. The MIC turned out to be 0.2 µM (≈ 0.0974 µg/mL) in data set [4], 1.56 µM (≈ 0.76 µg/mL) in data set [5] (setting [7]) and 0.78 µM (≈ 0.38 µg/mL) in data set [6].
In the case of `Oc1c(Br)cc(Br)c2ccc(CNc3cc(Br)ccc3Br)nc12` [RA-HQ-17], the MBC stood at 31.3 µM (≈ 17.7 µg/mL) in data set [2], 188 µM (≈ 106 µg/mL) in data set [3] and 750 µM (≈ 424 µg/mL) in data set [1]. For the same compound, in the data set with human red blood cells, the “% Haemolysis at 200 μM” value was 7.4%. Moreover, the figures for the MIC in data set [4], in data set [5] (setting [7]) and in data set [6] were 0.59 µM (≈ 0.334 µg/mL), 3.13 µM (≈ 1.77 µg/mL) and 1.56 µM (≈ 0.883 µg/mL), respectively.
Take `Oc1c(I)cc(I)c2ccc(CNc3ccccc3)nc12` [RA-HQ-22]: the values for the MBC in data set [2], in data set [3] and in data set [1] were 31.3 µM (≈ 15.7 µg/mL), 250 µM (≈ 126 µg/mL) and above 1000 µM, respectively. In addition, the “% Haemolysis at 200 μM” value in the data set on human red blood cells is listed as 3.0%. Moreover, the MIC was 4.69 µM (≈ 2.35 µg/mL) in data set [4], above 100 µM in data set [5] (setting [7]) and 9.38 µM (≈ 4.71 µg/mL) in data set [6].
